From patent US11452707B2, “Use of cannabidiol in preparation of drugs for resisting against influenza” (priority 2017, dated 2022)
Like-named read-outs stand apart in the source and are kept apart here.

Assays:
H1N1 WSN [1] = assay type: cell-based, influenza A virus H1N1; settings: 24 h
H5N1 [2] = tested on: H5N1; set-up: species or system influenza A virus H5N1; settings: in vivo
H1N1 WSN (A/WSN/33) [3] = assay: H1N1 WSN-infected mice: pathological section of lung tissue (HE); assay type: in vivo, influenza A virus H1N1; settings: DPI 8; 20 mg/kg/d i.p. from Day 4
H1N1 WSN (A/WSN/33) [4] = tested on: H1N1 WSN (A/WSN/33); set-up: species or system influenza A virus H1N1; settings: in vivo; for activities of the infected mice / body temperature drop / body weight drop / discomfort caused by influenza / mice died / mice in group / mortality of mice caused by H1N1 WSN infection: ip, 20 mg/kg/day
H1N1 WSN (A/WSN/33) [5] = assay: H1N1 WSN-infected mice: pulmonary vascular permeability test (Evans Blue); assay type: in vivo, influenza A virus H1N1; settings: DPI 8; 20 mg/kg/d i.p. from Day 4; vs high toxicity group; Tamiflu P<0.05, CBD P<0.01
H1N1 WSN (A/WSN/33) [6] = assay: H1N1 WSN-infected mice: inflammatory cells in alveolar lavage fluid (Diff-Quick staining); assay type: in vivo, influenza A virus H1N1; settings: DPI 8, 20 mg/kg/d; for number of macrophages in the alveolar lavage fluid: Tamiflu P<0.01, CBD P<0.001
H1N1 WSN (A/WSN/33) [7] = assay: H1N1 WSN-infected mice: lung index; assay type: in vivo, influenza A virus H1N1; settings: DPI 8; for lung injury index of mice caused by H1N1 WSN infection: 20 mg/kg/d i.p. from Day 4, vs high toxicity group, P<0.05
[8] = mouse, in vivo; cited from earlier work
[9] = tested on: H5N1 A/great black-headed gull/Qinghai/2009 (H5N1); set-up: species or system influenza A virus H5N1; settings: in vivo, 20 mg/kg/day
IAV = tested on: IAV; set-up: species or system Influenza A Virus; settings: in vivo
H1N1 WSN [10] = assay type: cell-based, influenza A virus H1N1; settings: 24 h; remark: listed apart in the source
[11] = oral and systemic use; cited from earlier work
H1N1 = tested on: H1N1; set-up: species or system influenza A virus H1N1; settings: in vivo
H5N1 [12] = assay type: cell-based, influenza A virus H5N1; settings: 1 μM; 24 h
[13] = of the 119 deaths; cited from earlier work

## C=C(C)[C@@H]1CCC(C)=C[C@H]1c1c(O)cc(CCCCC)cc1O [CBD, Cannabidiol]
H1N1 WSN [1]; 5 μM
  expression of NP gene in H1N1 WSN: significantly reduced
  expression of PA gene in H1N1 WSN: significantly reduced
  expression of PB1 gene in H1N1 WSN: significantly reduced
  expression of PB2 gene in H1N1 WSN: significantly reduced
H5N1 [2]
  mortality in mice caused by IAV infection: inhibited the same mortality
H1N1 WSN (A/WSN/33) [3]
  inflammatory cell infiltration (lung pathology): significantly reduced
H1N1 WSN (A/WSN/33) [4]
  mortality, CBD group compared with Tamiflu group: no significant difference
  activities of the infected mice: significantly increased
  body temperature drop: significantly inhibited
  body weight drop: significantly inhibited
  discomfort caused by influenza: significantly alleviated
  mice died / mice in group: 10/20
  mortality of mice caused by H1N1 WSN infection: significantly reduced
H1N1 WSN (A/WSN/33) [5]
  mouse pulmonary capillary permeability caused by H1N1 WSN infection: significantly reduced
H1N1 WSN (A/WSN/33) [6]
  number of neutrophils in the alveolar lavage fluid, compared with the Tamiflu group: very significant reduction
  number of macrophages in the alveolar lavage fluid: significantly reduced
H1N1 WSN (A/WSN/33) [6]; P<0.05
  number of macrophages in the alveolar lavage fluid, compared with the Tamiflu group: significant reduction
H1N1 WSN (A/WSN/33) [6]; vs IAV treatment group, P<0.01
  number of lymphocytes in the alveolar lavage fluid: significantly reduced
H1N1 WSN (A/WSN/33) [6]; vs high toxicity treatment group, P<0.001
  number of neutrophils in the alveolar lavage fluid: significantly reduced
H1N1 WSN (A/WSN/33) [7]
  lung injury index of mice caused by H1N1 WSN infection: significantly reduced
H1N1 WSN (A/WSN/33) [7]; both 20 mg/kg/d
  lung index, CBD group compared with Tamiflu group: no significant difference
[8]
  LPS-induced acute lung injury: inhibits
[9]
  activities of the infected mice: significantly increased
  discomfort caused by influenza: significantly alleviated
  mortality (mice died / mice in group): 10/10
  mortality compared with the influenza group: no significant difference
  survival time of mice after H5N1 infection prolonged by: 24 h
[9]; ip
  body temperature drop: significantly inhibited
  body weight drop caused by H5N1: Significantly Inhibited
IAV; 20 mg/kg/day
  mortality of mice caused by IAV infection: significantly inhibited
IAV; 60 mg/kg/day
  mortality of mice caused by IAV infection: significantly inhibited
H1N1 WSN [10]; 5 μM
  expression of PA gene in H1N1 WSN: significantly reduced
  expression of PB1 gene in H1N1 WSN: significantly reduced
[11]
  severity of joint damage and the acute and chronic courses of arthritis: significantly reduce
H1N1
  mortality in mice caused by IAV infection: inhibited the same mortality
H5N1 [12]
  expression of NP gene in H5N1: significantly reduced
  expression of PA gene in H5N1: significantly reduced
  expression of PB1 gene in H5N1: significantly reduced
  expression of PB2 gene in H5N1: significantly reduced

## CCOC(=O)C1=C[C@@H](OC(CC)CC)[C@H](NC(C)=O)[C@@H](N)C1 [Tamiflu, oseltamivir, reference compound]
H1N1 WSN [1]; 10 μM
  expression of NP gene in H1N1 WSN: no significant inhibitory effect
  expression of PA gene in H1N1 WSN: no significant inhibitory effect
  expression of PB1 gene in H1N1 WSN: no significant inhibitory effect
  expression of PB2 gene in H1N1 WSN: no significant inhibitory effect
[13]
  deaths who took Tamiflu that experienced severe illness or death within 12 hours after taking the drug: 38
H1N1 WSN (A/WSN/33) [3]
  inflammatory cell infiltration (lung pathology): significantly reduced
H1N1 WSN (A/WSN/33) [4]
  activities of the infected mice: significantly increased
  body temperature drop: significantly inhibited
  body weight drop: significantly inhibited
  discomfort caused by influenza: significantly alleviated
  mice died / mice in group: 9/20
  mortality of mice caused by H1N1 WSN infection: significantly reduced
H1N1 WSN (A/WSN/33) [5]
  mouse pulmonary capillary permeability caused by H1N1 WSN infection: significantly reduced
H1N1 WSN (A/WSN/33) [6]
  number of macrophages in the alveolar lavage fluid: significantly reduced
H1N1 WSN (A/WSN/33) [7]
  lung injury index of mice caused by H1N1 WSN infection: significantly reduced
IAV; 20 mg/kg/day
  mortality of mice caused by IAV infection: significantly inhibited
H1N1 WSN [10]; 10 μM
  expression of PA gene in H1N1 WSN: no significant inhibitory effect
  expression of PB1 gene in H1N1 WSN: no significant inhibitory effect
H5N1 [12]
  expression of NP gene in H5N1: significantly reduced
  expression of PA gene in H5N1: significantly reduced
  expression of PB1 gene in H5N1: significantly reduced
  expression of PB2 gene in H5N1: significantly reduced
